# Measurements: patent US12077503B2, “Substituted cyclic amides and their use as herbicides” (FMC CORPORATION, priority 2015, dated 2024)
# Experiments:
# Assay type in all cases: in vivo
# Kochia (Kochia scoparia) [1] = test: Test A preemergence; conditions: Bassia scoparia, pre-emergence, 240 h; for pest or weed control at 125 g/ha: 125 g ai/ha, Preemergence, visual injury rating after approximately 10 d, read-out: Kochia plant response rating (0 to 100 scale, 0 is no effect, 100 is complete control); for pest or weed control at 500 g/ha: 500 g ai/ha, preemergence, visual injury rating about 10 d after treatment, 0 to 100 scale (0 no effect, 100 complete control), read-out: Kochia plant response rating
# Summary of the method: (§1)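 Visual injury scores from 0, no effect, to 100, complete control, were assigned versus untreated controls roughly 10 d after treatment in the greenhouse. Test chemicals, formulated with surfactant in a non-phytotoxic solvent, were applied to planted seeds as a preemergence soil spray or postemergence to one- to two-leaf plants 2 to 10 cm tall, in loam–sand soil.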
# [2] = tested on: barnyardgrass (Echinochloa crus-galli); test: Test A preemergence; conditions: Echinochloa crus-galli, pre-emergence, 240 h; for pest or weed control at 125 g/ha: 125 g ai/ha, Preemergence, visual injury rating after approximately 10 d, read-out: Barnyardgrass plant response rating (0 to 100 scale, 0 is no effect, 100 is complete control); for pest or weed control at 500 g/ha: 500 g ai/ha, preemergence, visual injury rating about 10 d after treatment, 0 to 100 scale (0 no effect, 100 complete control), read-out: Barnyardgrass plant response rating
# Summary of the method: as §1
# [3] = tested on: giant foxtail (Setaria faberii); test: Test A preemergence; conditions: Setaria faberi, pre-emergence, 240 h; for pest or weed control at 125 g/ha: 125 g ai/ha, Preemergence, visual injury rating after approximately 10 d, read-out: Foxtail, Giant plant response rating (0 to 100 scale, 0 is no effect, 100 is complete control); for pest or weed control at 500 g/ha: 500 g ai/ha, preemergence, visual injury rating about 10 d after treatment, 0 to 100 scale (0 no effect, 100 complete control), read-out: Foxtail, Giant plant response rating
# Summary of the method: as §1
# [4] = tested on: pigweed (Amaranthus retroflexus); test: Test A preemergence; conditions: Amaranthus retroflexus, pre-emergence, 240 h; for pest or weed control at 125 g/ha: 125 g ai/ha, Preemergence, visual injury rating after approximately 10 d, read-out: Pigweed plant response rating (0 to 100 scale, 0 is no effect, 100 is complete control); for pest or weed control at 500 g/ha: 500 g ai/ha, preemergence, visual injury rating about 10 d after treatment, 0 to 100 scale (0 no effect, 100 complete control), read-out: Pigweed plant response rating
# [5] = tested on: ragweed (common ragweed, Ambrosia elatior); test: Test A preemergence; conditions: Ambrosia artemisiifolia, pre-emergence, 240 h; for pest or weed control at 125 g/ha: 125 g ai/ha, Preemergence, visual injury rating after approximately 10 d, read-out: Ragweed plant response rating (0 to 100 scale, 0 is no effect, 100 is complete control); for pest or weed control at 500 g/ha: 500 g ai/ha, preemergence, visual injury rating about 10 d after treatment, 0 to 100 scale (0 no effect, 100 complete control), read-out: Ragweed plant response rating
# Summary of the method: as §1
# [6] = tested on: ryegrass, Italian (Italian ryegrass, Lolium multiflorum); test: Test A preemergence; conditions: Lolium multiflorum, pre-emergence, 240 h; for pest or weed control at 125 g/ha: 125 g ai/ha, Preemergence, visual injury rating after approximately 10 d, read-out: Ryegrass, Italian plant response rating (0 to 100 scale, 0 is no effect, 100 is complete control); for pest or weed control at 500 g/ha: 500 g ai/ha, preemergence, visual injury rating about 10 d after treatment, 0 to 100 scale (0 no effect, 100 complete control), read-out: Ryegrass, Italian plant response rating
# Summary of the method: as §1
# [7] = tested on: Galium (catchweed bedstraw, Galium aparine); test: Test A postemergence; conditions: Galium, post-emergence, 240 h, 125 g ai/ha, Postemergence; visual injury after approximately 10 d; 0 to 100 scale where 0 is no effect and 100 is complete control; read-out: Plant response rating, Galium
# Summary of the method: as §1
# Kochia (Kochia scoparia) [8] = test: Test A postemergence; conditions: Bassia scoparia, post-emergence, 240 h, 125 g ai/ha, Postemergence; visual injury after approximately 10 d; 0 to 100 scale where 0 is no effect and 100 is complete control; read-out: Plant response rating, Kochia
# Summary of the method: as §1
# [9] = tested on: barnyardgrass (Echinochloa crus-galli); test: Test A postemergence; conditions: Echinochloa crus-galli, post-emergence, 240 h, 125 g ai/ha, Postemergence; visual injury after approximately 10 d; 0 to 100 scale where 0 is no effect and 100 is complete control; read-out: Plant response rating, Barnyardgrass
# Summary of the method: as §1
# [10] = tested on: blackgrass (Alopecurus myosuroides); test: Test A postemergence; conditions: Alopecurus myosuroides, post-emergence, 240 h, 125 g ai/ha, Postemergence; visual injury after approximately 10 d; 0 to 100 scale where 0 is no effect and 100 is complete control; read-out: Plant response rating, Blackgrass
# Summary of the method: as §1
# corn (Zea mays) = test: Test A postemergence; conditions: Zea mays, post-emergence, 240 h, 125 g ai/ha, Postemergence; visual injury after approximately 10 d; 0 to 100 scale where 0 is no effect and 100 is complete control
# Summary of the method: as §1
# [11] = tested on: giant foxtail (Setaria faberii); test: Test A postemergence; conditions: Setaria faberi, post-emergence, 240 h, 125 g ai/ha, Postemergence; visual injury after approximately 10 d; 0 to 100 scale where 0 is no effect and 100 is complete control; read-out: Plant response rating, Foxtail, Giant
# Summary of the method: as §1
# [12] = tested on: pigweed (Amaranthus retroflexus); test: Test A postemergence; conditions: Amaranthus retroflexus, post-emergence, 240 h, 125 g ai/ha, Postemergence; visual injury after approximately 10 d; 0 to 100 scale where 0 is no effect and 100 is complete control; read-out: Plant response rating, Pigweed
# Summary of the method: as §1
# [13] = tested on: ragweed (common ragweed, Ambrosia elatior); test: Test A postemergence; conditions: Ambrosia artemisiifolia, post-emergence, 240 h, 125 g ai/ha, Postemergence; visual injury after approximately 10 d; 0 to 100 scale where 0 is no effect and 100 is complete control; read-out: Plant response rating, Ragweed
# Summary of the method: as §1
# [14] = tested on: ryegrass, Italian (Italian ryegrass, Lolium multiflorum); test: Test A postemergence; conditions: Lolium multiflorum, post-emergence, 240 h, 125 g ai/ha, Postemergence; visual injury after approximately 10 d; 0 to 100 scale where 0 is no effect and 100 is complete control; read-out: Plant response rating, Ryegrass, Italian
# Summary of the method: as §1
# [15] = tested on: wheat (Triticum aestivum); test: Test A postemergence; conditions: Triticum aestivum, post-emergence, 240 h, 125 g ai/ha, Postemergence; visual injury after approximately 10 d; 0 to 100 scale where 0 is no effect and 100 is complete control; read-out: Plant response rating, Wheat
# Summary of the method: as §1
# [16] = tested on: barnyardgrass (Echinochloa crus-galli); test: Test B flooded paddy test; conditions: Echinochloa crus-galli, Flood, 250 g ai/ha; scale of 0 to 100 where 0 is no effect and 100 is complete control; read-out: Barnyardgrass plant response rating
# Summary of the method: (§2)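 Compound goes directly into floodwater once pots are flooded 3 cm above soil, targeting plants at two leaves; the water depth is then held for the test duration. Plants sit 13–15 d in a greenhouse and are rated visually, 100 denoting complete control.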
# [17] = tested on: ducksalad (Heteranthera limosa); test: Test B flooded paddy test; conditions: Heteranthera limosa, Flood, 250 g ai/ha; scale of 0 to 100 where 0 is no effect and 100 is complete control; read-out: Ducksalad plant response rating
# Summary of the method: as §2
# rice (Oryra sativa) = test: Test B flooded paddy test; conditions: Oryza sativa, Flood, 250 g ai/ha; scale of 0 to 100 where 0 is no effect and 100 is complete control; read-out: Rice plant response rating
# Summary of the method: as §2
# [18] = tested on: sedge, umbrella (small-flower umbrella sedge, Cyperus difformis); test: Test B flooded paddy test; conditions: Cyperus difformis, Flood, 250 g ai/ha; scale of 0 to 100 where 0 is no effect and 100 is complete control; read-out: Sedge, Umbrella plant response rating
# Summary of the method: as §2
Compound,pest or weed control at 125 g/ha (Kochia (Kochia scoparia) [1]) [%],pest or weed control at 500 g/ha (Kochia (Kochia scoparia) [1]) [%],pest or weed control at 125 g/ha [2] [%],pest or weed control at 500 g/ha [2] [%],pest or weed control at 125 g/ha [3] [%],pest or weed control at 500 g/ha [3] [%],pest or weed control at 125 g/ha [4] [%],pest or weed control at 500 g/ha [4] [%],pest or weed control at 125 g/ha [5] [%],pest or weed control at 500 g/ha [5] [%],pest or weed control at 125 g/ha [6] [%],pest or weed control at 500 g/ha [6] [%],pest or weed control at 125 g/ha [7] [%],pest or weed control at 125 g/ha (Kochia (Kochia scoparia) [8]) [%],pest or weed control at 125 g/ha [9] [%],pest or weed control at 125 g/ha [10] [%],"Corn plant response rating (crop injury, 0 = no effect, 100 = complete kill) at 125 g/ha (corn (Zea mays)) [%]",pest or weed control at 125 g/ha [11] [%],pest or weed control at 125 g/ha [12] [%],pest or weed control at 125 g/ha [13] [%],other results
CCOc1cccc([C@H]2CNC(=O)[C@@H]2C(=O)Nc2cccc(F)c2F)c1 [Compound 950],50,60,100,100,60,90,0,0,0,20,20,70,20,0,90,0,0,0,0,0,pest or weed control at 125 g/ha [14]: 20%; plant injury at 125 g/ha [15]: 0%; pest or weed control at 250 g/ha [16]: 65%; pest or weed control at 250 g/ha [17]: 95%; pest or weed control at 250 g/ha (rice (Oryra sativa)): 0%; pest or weed control at 250 g/ha [18]: 0%
CCOc1cccc([C@H]2CNC(=O)[C@@H]2C(=O)Nc2ccc(F)cc2F)c1 [Compound 951],0,20,90,90,70,70,0,0,0,0,0,0,0,0,70,0,0,0,0,0,pest or weed control at 125 g/ha [14]: 0%; plant injury at 125 g/ha [15]: 0%; pest or weed control at 250 g/ha [16]: 30%; pest or weed control at 250 g/ha [17]: 90%; pest or weed control at 250 g/ha (rice (Oryra sativa)): 0%; pest or weed control at 250 g/ha [18]: 0%
